IC50 data for 64 compounds are collected here from US9403798B2, “Triazinone compound and T-type calcium channel inhibitor” (NISSAN CHEMICAL INDUSTRIES, LTD., priority 2012, dated 2016).

The term IC50 denotes the concentration at which inhibition is half-maximal.

Structures are written as SMILES.

T1 sequence (O95180 whole entry): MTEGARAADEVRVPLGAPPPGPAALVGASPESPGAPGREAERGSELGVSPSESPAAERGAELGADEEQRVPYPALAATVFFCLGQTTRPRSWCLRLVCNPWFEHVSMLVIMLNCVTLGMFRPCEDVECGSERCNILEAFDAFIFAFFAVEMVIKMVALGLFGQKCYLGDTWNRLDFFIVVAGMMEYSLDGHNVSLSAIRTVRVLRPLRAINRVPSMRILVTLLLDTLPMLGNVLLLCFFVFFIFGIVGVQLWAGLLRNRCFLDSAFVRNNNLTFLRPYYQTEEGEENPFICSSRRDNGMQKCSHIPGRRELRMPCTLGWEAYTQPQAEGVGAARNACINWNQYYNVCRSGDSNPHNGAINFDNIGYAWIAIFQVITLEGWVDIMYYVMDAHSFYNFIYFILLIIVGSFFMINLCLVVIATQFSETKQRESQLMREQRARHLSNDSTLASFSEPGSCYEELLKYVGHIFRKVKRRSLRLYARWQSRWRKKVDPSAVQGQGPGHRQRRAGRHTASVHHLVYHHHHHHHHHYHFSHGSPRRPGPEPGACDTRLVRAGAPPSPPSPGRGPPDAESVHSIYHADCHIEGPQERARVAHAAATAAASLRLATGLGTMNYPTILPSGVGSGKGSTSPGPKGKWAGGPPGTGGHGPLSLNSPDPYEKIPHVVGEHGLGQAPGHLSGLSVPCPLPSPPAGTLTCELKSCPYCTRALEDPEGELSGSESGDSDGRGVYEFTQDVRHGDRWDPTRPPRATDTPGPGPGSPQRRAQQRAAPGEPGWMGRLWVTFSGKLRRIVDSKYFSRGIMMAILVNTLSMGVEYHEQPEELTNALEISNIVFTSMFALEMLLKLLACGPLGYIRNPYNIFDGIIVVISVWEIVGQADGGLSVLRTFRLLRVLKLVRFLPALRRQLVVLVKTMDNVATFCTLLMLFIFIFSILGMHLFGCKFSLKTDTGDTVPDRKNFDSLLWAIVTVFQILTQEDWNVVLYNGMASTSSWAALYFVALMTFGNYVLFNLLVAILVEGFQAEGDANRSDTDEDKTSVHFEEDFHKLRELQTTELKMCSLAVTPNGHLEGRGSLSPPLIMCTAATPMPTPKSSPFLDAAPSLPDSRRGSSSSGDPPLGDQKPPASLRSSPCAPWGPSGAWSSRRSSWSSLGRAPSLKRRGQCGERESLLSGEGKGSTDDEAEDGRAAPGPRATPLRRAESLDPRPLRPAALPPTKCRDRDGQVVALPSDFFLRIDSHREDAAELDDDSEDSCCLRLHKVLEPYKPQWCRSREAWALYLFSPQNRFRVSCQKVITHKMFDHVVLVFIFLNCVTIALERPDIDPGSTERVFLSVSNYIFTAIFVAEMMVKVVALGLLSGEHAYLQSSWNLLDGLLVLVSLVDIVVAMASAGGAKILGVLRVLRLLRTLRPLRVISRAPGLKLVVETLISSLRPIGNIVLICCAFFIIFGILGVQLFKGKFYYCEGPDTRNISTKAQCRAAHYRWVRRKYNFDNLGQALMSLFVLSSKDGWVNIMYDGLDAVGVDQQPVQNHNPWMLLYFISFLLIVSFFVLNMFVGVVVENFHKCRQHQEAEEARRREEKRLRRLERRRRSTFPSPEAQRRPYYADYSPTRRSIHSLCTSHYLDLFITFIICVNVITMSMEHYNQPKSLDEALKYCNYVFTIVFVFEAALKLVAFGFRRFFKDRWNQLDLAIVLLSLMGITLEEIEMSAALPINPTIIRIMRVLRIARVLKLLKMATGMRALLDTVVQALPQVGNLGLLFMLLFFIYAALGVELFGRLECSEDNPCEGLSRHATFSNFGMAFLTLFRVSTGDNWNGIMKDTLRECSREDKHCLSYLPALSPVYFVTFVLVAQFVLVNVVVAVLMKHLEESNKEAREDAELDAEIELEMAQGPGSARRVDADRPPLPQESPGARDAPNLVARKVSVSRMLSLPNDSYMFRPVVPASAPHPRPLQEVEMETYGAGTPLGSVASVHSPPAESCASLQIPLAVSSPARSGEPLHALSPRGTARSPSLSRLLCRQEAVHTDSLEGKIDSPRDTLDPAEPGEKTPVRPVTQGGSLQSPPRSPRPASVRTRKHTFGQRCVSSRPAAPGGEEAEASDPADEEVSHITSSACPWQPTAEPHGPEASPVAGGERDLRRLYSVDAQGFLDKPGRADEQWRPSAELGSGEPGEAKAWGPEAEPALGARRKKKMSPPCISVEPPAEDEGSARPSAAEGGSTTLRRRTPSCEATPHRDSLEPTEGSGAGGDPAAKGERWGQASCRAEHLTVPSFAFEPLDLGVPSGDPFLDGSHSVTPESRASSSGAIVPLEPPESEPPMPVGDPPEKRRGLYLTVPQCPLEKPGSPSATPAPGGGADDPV

The assay has as its target T1, Human T-type calcium channel (Cav 3.2) (Homo sapiens, UniProt O95180).
T1 construct: Edward Perez-Reyes, University of Virginia, USA; host or cells: HEK293
Nature of the assay: Calcium Influx Inhibition Assay. The following applies: Human T-type calcium channel (Cav 3.2) expressing HEK293 cells, FLIPR Calcium 4 fluorescence. In kind it is cell-based. The procedure: 1. Calcium Influx Inhibition Assay
Human T-type calcium channel (Cav 3.2) expressing HEK293 cells were obtained from Prof. Edward Perez-Reyes, University of Virginia, USA. The calcium-sensitive fluorescent dye used was FLIPR Calcium 4 Assay Kit (Molecular Devices). To a black 96-well plate with a clear bottom coated with type I collagen, the human T-type calcium channel (Cav 3.2) expressing HEK293 cells were seeded and cultured overnight, and the culture medium was removed. A solution of the calcium-sensitive fluorescent dye was added, and the plate was incubated at 37° C. in an atmosphere of 5% carbon dioxide for 30 minutes. To the plate, a diluted solution of a compound was added, and the whole was further incubated at 37° C. in an atmosphere of 5% carbon dioxide for 30 minutes. While fluorescence was continuously analyzed from the bottom with a FlexStation 3 (Molecular Devices), a calcium solution was added. […] From the rise in the fluorescence from the base line, the inhibition percentage was calculated. The logarithms of compound concentrations were plotted with respect to the inhibition activities to give an IC50 value.
Take `O=c1nc(N2CC=C(c3cncs3)CC2)ncn1Cc1ccc(C(F)(F)F)s1` [compound 265]: the IC50 is 0.57 µM.

In the case of `O=c1nc(N2CC=C(c3ccc(F)cc3)[C@@H](O)C2)ncn1Cc1ccc(OS(=O)(=O)C(F)(F)F)cc1` [compound 211], the IC50 was found to be 0.002 µM.

As for `Cc1nc(N[C@H]2C[C@@H](c3ccc(F)cc3)C2)nc(=O)n1Cc1ccc(C(F)(F)F)s1` [compound 360], the IC50 came out at 0.083 µM.

Turning to `O=c1nc(Nc2nc(-c3ccc(F)c(F)c3)cs2)ncn1Cc1ccc(Cl)cc1` [compound 130], the IC50 worked out at 0.077 µM.

Take `Cc1cc(N2CCN(c3nc(C)n(Cc4ccc(C(F)(F)F)s4)c(=O)n3)CC2)cs1` [compound 357]: the 50% inhibitory concentration (IC50) came to 0.013 µM.

`CC(C)(C)c1ccc(Cn2cnc(N3CCN(c4ccc(F)cc4)CC3)nc2=O)cc1` [compound 5]: the IC50 was 0.056 µM.

For `CC(C)(C)c1ccc(Cn2cnc(N3CC=C(c4ccc(F)cc4)CC3)nc2=O)cc1` [compound 183], the IC50 is 0.041 µM.

On to `O=c1nc(NC[C@H]2CCCN2c2ccc(F)cc2)ncn1Cc1ccc(Cl)cc1` [compound 129], for which the IC50 was determined as 0.06 µM.

For `Cc1nc(N2CC3CCC(C2)N3c2ccc(F)cc2)nc(=O)n1Cc1ccc(C(F)(F)F)s1` [compound 380], the half-inhibitory concentration (IC50) was determined as 0.31 µM.

Turning to `O=c1nc(N2CC3C(C2)C3c2ccc(F)cc2)ncn1Cc1ccc(C(F)(F)F)s1` (stereo not shown) [compound 311], the IC50 worked out at 0.16 µM.

As for `O=c1nc(N[C@@H]2CO[C@H](c3ccc(F)cc3)C2)ncn1Cc1ccc(C(F)(F)F)s1` (racemic) [compound 309], the IC50 was 0.52 µM.

Consider `COc1cncc(C2=CCN(c3ncn(Cc4ccc(C(F)(F)F)s4)c(=O)n3)CC2)n1` [compound 272], for which the IC50 was 0.35 µM.

`O=c1nc(N2CC=C(c3cc(F)cc(F)c3)CC2)ncn1Cc1ccc(C(F)(F)F)s1` [compound 285]: the IC50 was found to be 0.056 µM.

Turning to `Cc1nc(N2CC=C(c3ccc(F)cc3)C(CO)C2)nc(=O)n1Cc1ccc(C(F)(F)F)s1` (stereo not shown) [compound 379], the IC50 is 0.054 µM.

In the case of `O=c1nc(N2CC=C(c3ccsc3)CC2)ncn1Cc1ccc(C(F)(F)F)s1` [compound 230], the IC50 came to 0.022 µM.

On to `CN(C)Cc1nc(N2CCN(c3ccc(F)cc3)CC2)nc(=O)n1Cc1ccc(C(F)(F)F)s1` [compound 462], for which the IC50 was determined as 0.61 µM.

As for `O=c1nc(N2CC=C(c3ccc(F)cc3)CC2)ncn1Cc1ccc2c(c1)OCO2` [compound 182], the IC50 turned out to be 0.1 µM.

Regarding `O=c1nc(N2CCN(c3ccc(F)cc3)CC2)ncn1Cc1ccc(Cl)cc1` [compound 1], the IC50 was determined as 0.17 µM.

Regarding `CC(c1ccc(C(F)(F)F)s1)n1cnc(N2CC=C(c3ccc(F)cc3)C(O)C2)nc1=O` (stereo not shown) [compound 202], the IC50 came to 0.047 µM.

In the case of `CS(=O)(=O)NC1CN(c2ncn(Cc3ccc(C(F)(F)F)s3)c(=O)n2)CC=C1c1ccc(F)cc1` (stereo not shown) [compound 314], the IC50 amounted to 0.046 µM.

As to `O=c1nc(N[C@@H]2CCN(c3ccc(F)cc3)C2)ncn1Cc1ccc(C(F)(F)F)s1` [compound 224], the IC50 was 0.057 µM.

For `COc1nc(C2=CCN(c3nc(C)n(Cc4ccc(Br)s4)c(=O)n3)C[C@@H]2O)ccc1Cl` [compound 395], the IC50 was found to be 0.0017 µM.

On to `COc1nc(C2=CCN(c3ncn(Cc4ccc(C(C)(C)C)s4)c(=O)n3)C[C@@H]2O)ccc1Cl` [compound 413], for which the IC50 was determined as 0.0069 µM.

For the compound `Cc1nc(N2CC=C(c3ccc(F)cc3)[C@@H](O)C2)nc(=O)n1Cc1ccc(C(F)(F)C(F)(F)F)s1` [compound 454], the IC50 was 0.0019 µM.

Regarding `Cc1nc(N2CC=C(c3ccc(F)cc3)C3(COCOC3)C2)nc(=O)n1Cc1ccc(C(F)(F)F)s1` [compound 486], the IC50 amounted to 0.41 µM.

Regarding `O=C1CCc2cc(C3=CCN(c4ncn(Cc5ccc(C(F)(F)F)s5)c(=O)n4)CC3)ccc21` [compound 269], the IC50 worked out at 0.075 µM.

For `COc1nc(C2=CCN(c3nc(C)n(Cc4ccc(OS(=O)(=O)C(F)(F)F)nc4)c(=O)n3)C[C@@H]2O)ccc1Cl` [compound 450], the IC50 came to 0.046 µM.

Turning to `Cc1nc(N2CC=C(c3ccc(F)cc3)[C@@H](N)C2)nc(=O)n1Cc1ccc(C(F)(F)F)s1` [compound 348], the IC50 worked out at 0.0045 µM.

In the case of `O=c1nc(NC2CCC(O)(c3ccc(F)cc3)C2O)ncn1Cc1ccc(Cl)cc1` (stereo not shown) [compound 465], the IC50 worked out at 0.28 µM.

`Cc1nc(N2CCN(c3nc(C)n(Cc4ccc(C(F)(F)F)s4)c(=O)n3)CC2)ccc1F` [compound 365]: the IC50 stood at 0.013 µM.

Take `O=c1cc(C(F)(F)F)ccn1Cn1cnc(N2CCN(c3ccc(F)cc3)CC2)nc1=O` [compound 16]: the half-inhibitory concentration (IC50) came out at 0.58 µM.

In the case of `O=c1nc(N2CCN(c3cc(F)c(F)c(F)c3)CC2)ncn1Cn1ccc(C(F)(F)F)n1` [compound 58], the IC50 is 0.17 µM.

In the case of `Cc1nc(N2CCN(CC(=O)C34CC5CC(CC(C5)C3)C4)CC2)nc(=O)n1Cc1ccc(C(F)(F)F)s1` [compound 487], the IC50 was 0.5 µM.

`O=c1nc(N2CC=C(c3cn4c(n3)CCC4)CC2)ncn1Cc1ccc(C(F)(F)F)s1` [compound 283]: the 50% inhibitory concentration (IC50) stood at 0.51 µM.

Turning to `O=c1nc(NCC2CC2c2ccc(F)cc2)ncn1Cc1ccc(C(F)(F)F)s1` (single isomer, unassigned) [compound 310], the IC50 came to 0.17 µM.

On to `O=c1nc(N2CC=C(c3ccc(F)cc3)C(O)C2)ncn1Cc1cc2c(s1)CCCC2` (stereo not shown) [compound 201], for which the half-maximal inhibitory concentration (IC50) amounted to 0.0057 µM.

For the compound `O=c1nc(N2CC=C(c3ccc(F)cc3)C(O)C2)ncn1Cc1ccc(OS(=O)(=O)C(F)(F)F)nc1` (stereo not shown) [compound 189], the IC50 came to 0.012 µM.

With `CN(C)C1CN(c2ncn(Cc3ccc(C(F)(F)F)s3)c(=O)n2)CC=C1c1ccc(F)cc1` (stereo not shown) [compound 481], the IC50 came to 0.47 µM.

Turning to `O=c1nc(N2C=CC(c3ccc(F)cc3)=CC2)ncn1Cc1ccc(C(F)(F)F)s1` [compound 484], the 50% inhibitory concentration (IC50) was 0.24 µM.

As to `Cc1nc(N2CCN(c3ccccc3)CC(F)(F)C2)nc(=O)n1Cc1ccc(C(F)(F)F)s1` [compound 377], the IC50 turned out to be 0.41 µM.

Regarding `CC(F)(F)c1ccc(Cn2cnc(N3CC=C(c4ccc(F)cc4)[C@@H](O)C3)nc2=O)s1` [compound 207], the 50% inhibitory concentration (IC50) amounted to 0.0075 µM.

For `CCCCCCOc1ccc(Cn2cnc(N3CCN(c4ccc(F)cc4)CC3)nc2=O)cc1` [compound 140], the half-maximal inhibitory concentration (IC50) came to 0.055 µM.

`O=c1nc(N2CCN(c3ccc(F)cc3)CC2)ncn1Cn1ccc(C2CCCCC2)n1` [compound 27]: the IC50 was 0.15 µM.

Consider `O=c1nc(N2CC=C(c3ccc(Cl)cn3)CC2)ncn1Cc1ccc(C(F)(F)F)s1` [compound 256], for which the IC50 turned out to be 0.042 µM.

For `O=c1nc(NC2CCC3(c4ccc(F)cc4)CC23)ncn1Cc1ccc(Cl)cc1` (stereo not shown) [compound 127], the 50% inhibitory concentration (IC50) was determined as 0.03 µM.

As to `Cc1cc(C2=CCN(c3ncn(Cc4ccc(C(F)(F)F)s4)c(=O)n3)CC2)sn1` [compound 275], the IC50 turned out to be 0.03 µM.

On to `Cc1cc(N2CCN(c3ncn(Cc4ccc(C(F)(F)F)o4)c(=O)n3)CC2)cs1` [compound 436], for which the IC50 is 0.33 µM.

Turning to `Cc1nc(N2CCC3(CCN(c4ccc(F)cc4)C3)CC2)nc(=O)n1Cc1ccc(C(F)(F)F)s1` [compound 370], the IC50 came to 0.63 µM.

With `CC(=O)OCc1nc(N2CC=C(c3ccc(F)cc3)[C@@H](O)C2)nc(=O)n1Cc1ccc(C(F)(F)F)s1` [compound 457], the IC50 is 0.013 µM.

In the case of `N#Cc1cc(C2=CCN(c3ncn(Cc4ccc(C(F)(F)F)s4)c(=O)n3)CC2)ccc1F` [compound 278], the IC50 was 0.045 µM.

On to `Cc1nc(N2CC=C(c3ccc(F)cc3)[C@@H](O)C2)nc(=O)n1Cc1ccc(Cl)s1` [compound 403], for which the IC50 is 0.002 µM.

`CC1CC(F)(c2ccc(F)cc2)CCN1c1ncn(Cc2ccc(Cl)cc2)c(=O)n1` (stereo not shown) [compound 134]: the IC50 was 0.32 µM.

As to `O=c1nc(N2CC=C(c3ccc(F)cc3)C(O)C2)ncn1Cn1ccc(C(F)(F)C(F)(F)F)n1` (stereo not shown) [compound 194], the concentration for half-maximal inhibition (IC50) worked out at 0.0099 µM.

As for `Cc1cccc(C2=CCN(c3ncn(Cc4cc5c(s4)CCCC5)c(=O)n3)C[C@@H]2O)n1` [compound 430], the IC50 was found to be 0.16 µM.

As for `O=c1nc(N2CCN(c3ccc(F)cc3)CC2)ncn1Cc1ccc(OCC(F)(F)F)nc1` [compound 144], the IC50 is 0.096 µM.

Regarding `C[C@@H]1CN(c2ccc(F)cc2)CCN1c1ncn(Cc2ccc(Cl)cc2)c(=O)n1` [compound 96], the IC50 was 0.11 µM.

Regarding `O=c1nc(N2CC=C(c3cc4ccccc4o3)CC2)ncn1Cc1ccc(C(F)(F)F)s1` [compound 260], the IC50 stood at 0.14 µM.

For `O=c1nc(N2CC=C(c3ccc(F)cc3)C(O)C2)ncn1Cc1ccc(C2CCCO2)s1` (stereo not shown) [compound 196], the 50% inhibitory concentration (IC50) worked out at 0.02 µM.

For `NC1CN(c2ncn(Cc3ccc(C(F)(F)F)s3)c(=O)n2)CC=C1c1ccc(F)cc1` (stereo not shown) [compound 321], the IC50 was determined as 0.0036 µM.

With `Cc1ccc(C2=CCN(c3nc(C)n(Cc4ccc(C(F)(F)F)s4)c(=O)n3)C[C@@H]2O)cc1F` [compound 349], the IC50 was 0.0011 µM.

Consider `CCCCOc1nc(N2CCN(c3ccc(F)cc3)CC2)nc(=O)n1Cc1ccc(Cl)cc1` [compound 65], for which the IC50 was 0.61 µM.

As for `O=c1nc(N2CC=C(c3ccc(F)c(Cl)c3)[C@@H](O)C2)ncn1Cc1cc2c(s1)CCCC2` [compound 428], the IC50 was 0.0055 µM.

Regarding `O=c1nc(N[C@@H]2CCN(c3ccc(F)cc3)C2)ncn1Cc1ccc(Cl)cc1` [compound 92], the IC50 stood at 0.047 µM.

Consider `Cc1ccc(N2CCN(c3nc(C)n(Cc4ccc(C(F)(F)F)s4)c(=O)n3)CC2)cc1` [compound 363], for which the IC50 came to 0.0087 µM.
